PMC8911579, “(−)-Naringenin 4′,7-dimethyl Ether Isolated from Nardostachys jatamansi Relieves Pain through Inhibition of Multiple Channels” (Molecules, 2022)

Legend:
[1] = system: endocannabinoid receptors; parameters: method as in PMID 25686780; conditions: radioligand binding; cited from earlier work
opioid receptors = system: opioid receptors; parameters: method as in PMID 25686780; conditions: radioligand binding; cited from earlier work
pain = system: pain; parameters: method as in PMID 30193010; conditions: in vivo; cited from earlier work
pro-inflammatory factors = system: pro-inflammatory factors; parameters: method as in PMID 30193010; conditions: compared to other naringenin derivatives; cited from earlier work
TRPA1 channels = target: T1, TRPA1 channels (Homo sapiens, UniProt O75762); assay: whole-cell patch-clamp, TRPA1 stably expressed in HEK293 cells; format: cell-based
T1 construct: expressed in transfected cells

[2] = system: Nav channels and Kv channels in cortical neurons; parameters: method as in PMID 34747100; conditions: cited from earlier work
sleep = system: sleep; parameters: method as in PMID 34747100; conditions: extracted from peanut stem and leaf; cited from earlier work

T1 sequence (O75762 whole entry): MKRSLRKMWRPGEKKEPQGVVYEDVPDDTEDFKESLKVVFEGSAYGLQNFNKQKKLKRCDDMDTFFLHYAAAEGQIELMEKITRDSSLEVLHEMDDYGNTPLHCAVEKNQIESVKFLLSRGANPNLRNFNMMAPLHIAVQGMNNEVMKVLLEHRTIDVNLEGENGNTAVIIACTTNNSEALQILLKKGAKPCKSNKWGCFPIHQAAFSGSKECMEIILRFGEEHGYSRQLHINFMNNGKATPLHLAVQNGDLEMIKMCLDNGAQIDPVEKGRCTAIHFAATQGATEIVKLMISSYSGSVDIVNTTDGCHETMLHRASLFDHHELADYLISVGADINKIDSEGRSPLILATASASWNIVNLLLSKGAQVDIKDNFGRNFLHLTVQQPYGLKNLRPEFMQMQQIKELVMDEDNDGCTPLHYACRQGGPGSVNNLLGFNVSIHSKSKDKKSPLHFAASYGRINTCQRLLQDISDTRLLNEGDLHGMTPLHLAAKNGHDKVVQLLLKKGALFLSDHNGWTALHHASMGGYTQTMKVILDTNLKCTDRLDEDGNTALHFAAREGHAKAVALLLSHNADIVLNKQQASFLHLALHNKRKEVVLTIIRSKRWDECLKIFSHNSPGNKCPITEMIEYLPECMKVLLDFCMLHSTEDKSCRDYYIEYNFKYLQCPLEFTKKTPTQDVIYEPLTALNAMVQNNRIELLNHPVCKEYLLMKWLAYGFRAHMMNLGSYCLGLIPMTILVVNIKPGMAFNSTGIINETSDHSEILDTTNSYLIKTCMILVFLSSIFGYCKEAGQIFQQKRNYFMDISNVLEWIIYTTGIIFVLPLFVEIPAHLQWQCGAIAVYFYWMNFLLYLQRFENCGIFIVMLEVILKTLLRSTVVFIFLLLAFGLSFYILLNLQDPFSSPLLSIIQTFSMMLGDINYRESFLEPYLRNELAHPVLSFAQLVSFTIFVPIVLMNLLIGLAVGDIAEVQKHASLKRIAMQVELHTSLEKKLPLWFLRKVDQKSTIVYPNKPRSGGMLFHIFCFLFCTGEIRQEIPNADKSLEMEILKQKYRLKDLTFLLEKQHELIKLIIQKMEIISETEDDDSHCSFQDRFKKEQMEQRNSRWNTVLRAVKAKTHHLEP

Question: With `COc1ccc([C@@H]2CC(=O)c3c(O)cc(OC)cc3O2)cc1` [(+)-NRG-DM, (+)-naringenin 4′,7-dimethyl ether] as the compound, how does the affinity [1] read?
Answer: does not show affinity

Question: And the affinity (opioid receptors)?
Answer: does not show affinity

Question: What about the analgesic activity (pain) of the same compound?
Answer: showed analgesic activity

Question: What about the “production and release of pro-inflammatory factors” value (pro-inflammatory factors) of the same compound?
Answer: did not influence the production and release of pro-inflammatory factors

Question: Which “effect on TRPA1 currents” value (TRPA1 channels; 10 µM, TRPA1 channel activator) does the source give for `C=CCN=C=S` [AITC, allyl isothiocyanate] here?
Answer: induced

Question: Which “effect on TRPA1 currents” value (TRPA1 channels; 30 µM, TRPA1 channel inhibitor) does the source give for `CC(C)c1ccc(NC(=O)Cn2cnc3c2c(=O)n(C)c(=O)n3C)cc1` [HC030031] here?
Answer: inhibited

Question: With `COc1ccc([C@@H]2CC(=O)c3c(O)cc(OC)cc3O2)cc1` [NRG-DM] as the compound, how does the “inhibitory activity on Nav channels versus Kv channels” value [2] read?
Answer: more potent than that on Kv channels

Question: And the sleep (sleep)?
Answer: promoted sleep
